Here are results for 21 molecules from patent publication US20240109917A1 (ACTELION PHARMACEUTICALS LTD, priority 2020, published 2024).

Where two headings read alike, the source gives them in different places. Where only a bound is given, the exact number is not on record here.

Experiment [1] addresses Tb-labeled inactive PDGFRβ (Homo sapiens (Human), UniProt P09619). Description: PDGFRβ LanthaScreen Assay. The note with it: read-out: PDGFR Lantha IC50. The format is binding.
A further experiment has as its target PDGFRβ (Rattus norvegicus (Rat), UniProt Q05030). Description: PDGFRβ Cellular Assay (PDGFRb P-Y751 HTRF in A10 cells stimulated with PDGF-BB). The experiment is classed as cell-based. An outline of the steps: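 Phospho-Y751 PDGFRβ was measured by HTRF in lysates of A10 rat cells. Cells received compound for 3 hours before PDGF-BB stimulation (100 ng/mL working stock).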

A further experiment concerns the target VEGFR2, unphosphorylated (Homo sapiens (Human), UniProt P35968). Kind of experiment: VEGFR ADP GLO Assay. The format is biochemical.

Chain of VEGFR2, unphosphorylated (P35968 20-1356): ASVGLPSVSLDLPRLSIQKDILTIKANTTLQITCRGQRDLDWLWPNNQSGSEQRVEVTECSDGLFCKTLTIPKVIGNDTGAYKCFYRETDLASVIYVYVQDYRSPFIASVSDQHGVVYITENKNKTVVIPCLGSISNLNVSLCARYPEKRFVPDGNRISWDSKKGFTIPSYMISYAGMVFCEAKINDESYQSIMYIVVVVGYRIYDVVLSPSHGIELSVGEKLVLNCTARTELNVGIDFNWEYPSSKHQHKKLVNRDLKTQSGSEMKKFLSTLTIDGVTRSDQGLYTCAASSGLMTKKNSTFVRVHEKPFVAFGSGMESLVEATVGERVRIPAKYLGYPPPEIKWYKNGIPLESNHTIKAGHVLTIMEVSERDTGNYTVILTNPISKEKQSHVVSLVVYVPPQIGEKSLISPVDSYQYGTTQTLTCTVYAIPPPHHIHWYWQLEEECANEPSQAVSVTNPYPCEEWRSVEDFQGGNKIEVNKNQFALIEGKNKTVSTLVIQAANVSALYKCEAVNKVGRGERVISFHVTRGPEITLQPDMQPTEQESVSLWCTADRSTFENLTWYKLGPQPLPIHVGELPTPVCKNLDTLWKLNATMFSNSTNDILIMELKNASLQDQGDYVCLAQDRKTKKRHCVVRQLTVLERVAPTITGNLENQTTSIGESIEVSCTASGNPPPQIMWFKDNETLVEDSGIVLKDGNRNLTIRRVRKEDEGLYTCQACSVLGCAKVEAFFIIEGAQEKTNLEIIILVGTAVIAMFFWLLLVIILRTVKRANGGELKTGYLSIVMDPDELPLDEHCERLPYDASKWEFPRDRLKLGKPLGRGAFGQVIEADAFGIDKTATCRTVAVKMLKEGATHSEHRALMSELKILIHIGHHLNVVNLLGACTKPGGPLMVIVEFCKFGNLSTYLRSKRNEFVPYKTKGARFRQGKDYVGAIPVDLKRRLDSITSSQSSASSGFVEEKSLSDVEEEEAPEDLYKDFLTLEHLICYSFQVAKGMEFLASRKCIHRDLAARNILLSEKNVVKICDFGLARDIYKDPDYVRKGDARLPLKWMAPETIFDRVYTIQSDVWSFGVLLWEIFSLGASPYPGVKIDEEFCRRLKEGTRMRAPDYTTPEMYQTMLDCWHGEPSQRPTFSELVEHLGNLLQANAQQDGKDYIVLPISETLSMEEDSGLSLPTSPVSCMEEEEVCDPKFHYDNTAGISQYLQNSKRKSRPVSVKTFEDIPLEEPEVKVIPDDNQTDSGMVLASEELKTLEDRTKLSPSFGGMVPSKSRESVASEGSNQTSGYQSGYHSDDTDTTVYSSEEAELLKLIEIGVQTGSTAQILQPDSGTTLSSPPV
Chain of Tb-labeled inactive PDGFRβ (P09619 33-1106): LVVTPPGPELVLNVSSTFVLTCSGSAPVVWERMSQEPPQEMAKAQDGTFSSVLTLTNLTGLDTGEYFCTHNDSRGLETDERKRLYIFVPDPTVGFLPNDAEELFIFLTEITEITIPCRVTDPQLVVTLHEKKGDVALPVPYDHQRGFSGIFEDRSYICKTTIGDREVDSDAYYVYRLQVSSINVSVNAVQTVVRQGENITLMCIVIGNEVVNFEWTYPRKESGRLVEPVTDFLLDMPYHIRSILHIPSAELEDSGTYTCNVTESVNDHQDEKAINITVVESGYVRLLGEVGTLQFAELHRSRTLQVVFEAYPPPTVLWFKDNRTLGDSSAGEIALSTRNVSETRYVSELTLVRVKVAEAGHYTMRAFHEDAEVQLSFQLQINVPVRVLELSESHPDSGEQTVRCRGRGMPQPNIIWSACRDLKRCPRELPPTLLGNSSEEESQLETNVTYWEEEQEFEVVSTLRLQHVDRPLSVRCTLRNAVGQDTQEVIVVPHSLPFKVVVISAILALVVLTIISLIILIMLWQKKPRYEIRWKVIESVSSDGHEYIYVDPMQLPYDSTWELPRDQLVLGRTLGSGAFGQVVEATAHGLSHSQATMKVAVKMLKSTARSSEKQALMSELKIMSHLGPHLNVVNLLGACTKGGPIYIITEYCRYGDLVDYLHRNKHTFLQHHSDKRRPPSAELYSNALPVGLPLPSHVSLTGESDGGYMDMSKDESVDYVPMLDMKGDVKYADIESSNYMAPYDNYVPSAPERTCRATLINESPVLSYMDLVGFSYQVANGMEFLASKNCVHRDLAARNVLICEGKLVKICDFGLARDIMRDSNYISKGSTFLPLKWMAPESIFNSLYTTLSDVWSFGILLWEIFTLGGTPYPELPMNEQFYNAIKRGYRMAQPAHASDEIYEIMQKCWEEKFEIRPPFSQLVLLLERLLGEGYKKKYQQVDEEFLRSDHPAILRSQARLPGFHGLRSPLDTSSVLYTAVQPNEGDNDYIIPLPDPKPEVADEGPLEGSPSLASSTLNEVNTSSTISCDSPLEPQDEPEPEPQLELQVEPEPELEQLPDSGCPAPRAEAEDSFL
Chain of PDGFRβ (Q05030 32-1097): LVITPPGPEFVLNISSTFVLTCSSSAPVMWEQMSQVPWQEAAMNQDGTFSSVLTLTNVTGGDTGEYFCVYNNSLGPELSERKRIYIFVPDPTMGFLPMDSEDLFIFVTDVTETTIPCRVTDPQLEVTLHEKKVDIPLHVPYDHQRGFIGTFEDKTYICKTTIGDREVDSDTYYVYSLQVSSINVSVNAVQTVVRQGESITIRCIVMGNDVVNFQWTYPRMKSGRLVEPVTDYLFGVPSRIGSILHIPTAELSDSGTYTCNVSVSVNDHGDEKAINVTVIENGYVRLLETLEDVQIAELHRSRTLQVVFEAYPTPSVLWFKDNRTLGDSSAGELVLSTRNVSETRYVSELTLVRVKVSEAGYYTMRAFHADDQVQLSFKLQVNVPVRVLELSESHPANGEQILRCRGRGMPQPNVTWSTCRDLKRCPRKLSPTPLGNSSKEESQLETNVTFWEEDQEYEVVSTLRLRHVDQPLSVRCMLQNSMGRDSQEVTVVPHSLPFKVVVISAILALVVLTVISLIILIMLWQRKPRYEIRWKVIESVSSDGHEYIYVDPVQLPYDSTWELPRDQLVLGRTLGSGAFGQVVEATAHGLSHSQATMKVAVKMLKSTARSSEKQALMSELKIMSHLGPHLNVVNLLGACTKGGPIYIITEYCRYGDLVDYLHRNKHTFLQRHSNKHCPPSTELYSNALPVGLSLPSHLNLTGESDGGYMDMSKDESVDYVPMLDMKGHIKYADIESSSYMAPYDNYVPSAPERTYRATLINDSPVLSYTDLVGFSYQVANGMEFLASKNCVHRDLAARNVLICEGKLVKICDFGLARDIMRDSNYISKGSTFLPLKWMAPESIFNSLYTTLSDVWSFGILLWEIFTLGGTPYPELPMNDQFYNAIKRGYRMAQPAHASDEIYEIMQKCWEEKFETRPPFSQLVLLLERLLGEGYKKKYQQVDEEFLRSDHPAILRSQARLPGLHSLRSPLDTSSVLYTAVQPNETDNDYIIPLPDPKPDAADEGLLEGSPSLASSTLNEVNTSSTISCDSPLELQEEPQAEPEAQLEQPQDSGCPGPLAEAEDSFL

Take `Cc1cc(C(=O)NCCN2CC[C@H](O)C2)sc1NC(=O)c1cnn2cc(-c3cnn(C)c3)sc12` [Example 195, (S)—N-(5-((2-(3-hydroxypyrrolidin-1-yl)ethyl)carbamoyl)-3-methylthiophen-2-yl)-2-(1-methyl-1H-pyrazol-4-yl)pyrazolo[5,1-b]thiazole-7-carboxamide]: the IC50 in experiment [1] is above 3 µM; at PDGFRβ (read-out: PDGFR Cellular IC50) it was above 3 µM; against VEGFR2, unphosphorylated, above 7.5 µM.
In the case of `Cc1cc(C(=O)NCCN2CCOCC23CC3)sc1NC(=O)c1cnn2cc(-c3cnn(C)c3)sc12` [Example 197, N-(5-((2-(7-oxa-4-azaspiro[2.5]octan-4-yl)ethyl)carbamoyl)-3-methylthiophen-2-yl)-2-(1-methyl-1H-pyrazol-4-yl)pyrazolo[5,1-b]thiazole-7-carboxamide], the IC50 in experiment [1] is 0.051 µM; at PDGFRβ (read-out: PDGFR Cellular IC50), 0.613 µM; against VEGFR2, unphosphorylated, above 7.5 µM.
Regarding `Cc1cc(C(=O)NCCN2[C@H](C)CCC[C@@H]2C)sc1NC(=O)c1cnn2cc(-c3cnn(C)c3)sc12` [Example 198, N-(5-((2-((2S,6R)-2,6-dimethylpiperidin-1-yl)ethyl)carbamoyl)-3-methylthiophen-2-yl)-2-(1-methyl-1H-pyrazol-4-yl)pyrazolo[5,1-b]thiazole-7-carboxamide], the half-maximal inhibitory concentration (IC50) in experiment [1] was 0.111 µM; against PDGFRβ (PDGFR Cellular IC50), 0.105 µM; on VEGFR2, unphosphorylated, above 7.5 µM.
As for `Cc1cc(C(=O)NCCN2CC3CCC2CC3)sc1NC(=O)c1cnn2cc(-c3cnn(C)c3)sc12` [Example 199, N-(5-((2-(2-azabicyclo[2.2.2]octan-2-yl)ethyl)carbamoyl)-3-methylthiophen-2-yl)-2-(1-methyl-1H-pyrazol-4-yl)pyrazolo[5,1-b]thiazole-7-carboxamide], the half-maximal inhibitory concentration (IC50) in experiment [1] is 0.125 µM; at PDGFRβ (read-out: PDGFR Cellular IC50) it was 0.237 µM; at VEGFR2, unphosphorylated, above 7.5 µM.
For `Cc1cc(C(=O)NCCN2CCCC(O)C2)sc1NC(=O)c1cnn2cc(-c3cnn(C)c3)sc12` (stereo not drawn) [Example 200, N-(5-((2-(3-hydroxypiperidin-1-yl)ethyl)carbamoyl)-3-methylthiophen-2-yl)-2-(1-methyl-1H-pyrazol-4-yl)pyrazolo[5,1-b]thiazole-7-carboxamide] the same measures were 2.21 µM, above 3 µM and above 7.5 µM.
Regarding `Cc1cc(C(=O)NCCCN2CCCC2(C)C)sc1NC(=O)c1cnn2cc(-c3cnn(C)c3)sc12` [Example 201, N-(5-((3-(2,2-dimethylpyrrolidin-1-yl)propyl)carbamoyl)-3-methylthiophen-2-yl)-2-(1-methyl-1H-pyrazol-4-yl)pyrazolo[5,1-b]thiazole-7-carboxamide], the half-maximal inhibitory concentration (IC50) is 2.45 µM in experiment [1]; 1.44 µM on PDGFRβ (read-out: PDGFR Cellular IC50); above 7.5 µM against VEGFR2, unphosphorylated.
Regarding `Cc1cc(C(=O)NCC(C)(C)N2CCCC2)sc1NC(=O)c1cnn2cc(-c3cnn(C)c3)sc12` [Example 202, 2-(1-methyl-1H-pyrazol-4-yl)-N-(3-methyl-5-((2-methyl-2-(pyrrolidin-1-yl)propyl)carbamoyl)thiophen-2-yl)pyrazolo[5,1-b]thiazole-7-carboxamide], the 50% inhibitory concentration (IC50) was above 3 µM in experiment [1]; above 3 µM against PDGFRβ (PDGFR Cellular IC50); above 7.5 µM on VEGFR2, unphosphorylated.
In the case of `Cc1cc(C(=O)NCCN2CCC3(CCC3)CC2)sc1NC(=O)c1cnn2cc(-c3cnn(C)c3)sc12` [Example 203, N-(5-((2-(7-azaspiro[3.5]nonan-7-yl)ethyl)carbamoyl)-3-methylthiophen-2-yl)-2-(1-methyl-1H-pyrazol-4-yl)pyrazolo[5,1-b]thiazole-7-carboxamide], the IC50 is 1.06 µM in experiment [1]; 0.449 µM on PDGFRβ (read-out: PDGFR Cellular IC50); above 7.5 µM at VEGFR2, unphosphorylated.
Consider `Cc1cc(C(=O)NCCN2CCc3ccccc3C2)sc1NC(=O)c1cnn2cc(-c3cnn(C)c3)sc12` [Example 204, N-(5-((2-(3,4-dihydroisoquinolin-2 (1H)-yl)ethyl)carbamoyl)-3-methylthiophen-2-yl)-2-(1-methyl-1H-pyrazol-4-yl)pyrazolo[5,1-b]thiazole-7-carboxamide], for which the IC50 in experiment [1] is 0.42 µM; at PDGFRβ (read-out: PDGFR Cellular IC50), 0.46 µM; against VEGFR2, unphosphorylated, above 7.5 µM.
Turning to `CCc1cc(C(=O)NCCN2CCCC23CCC3)sc1NC(=O)c1cnn2cc(-c3cnn(C)c3)sc12` [Example 205, N-(5-((2-(5-azaspiro[3.4]octan-5-yl)ethyl)carbamoyl)-3-ethylthiophen-2-yl)-2-(1-methyl-1H-pyrazol-4-yl)pyrazolo[5,1-b]thiazole-7-carboxamide], the IC50 in experiment [1] is 0.107 µM; on PDGFRβ (read-out: PDGFR Cellular IC50), 0.562 µM; on VEGFR2, unphosphorylated it was above 7.5 µM.
In the case of `Cn1cc(-c2cn3ncc(C(=O)Nc4sc(C(=O)NCCN5CCCC56CCC6)cc4C#N)c3s2)cn1` [Example 206, N-(5-((2-(5-azaspiro[3.4]octan-5-yl)ethyl)carbamoyl)-3-cyanothiophen-2-yl)-2-(1-methyl-1H-pyrazol-4-yl)pyrazolo[5,1-b]thiazole-7-carboxamide], the IC50 in experiment [1] is above 3 µM; on PDGFRβ (read-out: PDGFR Cellular IC50), above 3 µM; against VEGFR2, unphosphorylated, above 2.5 µM.
On to `Cn1cc(-c2cn3ncc(C(=O)Nc4cc(C(=O)NCCN5CCCC5(C)C)ccc4F)c3s2)cn1` [Example 207, N-(5-((2-(2,2-dimethylpyrrolidin-1-yl)ethyl)carbamoyl)-2-fluorophenyl)-2-(1-methyl-1H-pyrazol-4-yl)pyrazolo[5,1-b]thiazole-7-carboxamide], for which the IC50 is 0.0044 µM in experiment [1]; 0.0033 µM on PDGFRβ (read-out: PDGFR Cellular IC50); above 7.5 µM against VEGFR2, unphosphorylated.
On to `Cc1ncc(C(=O)NCCN2C[C@H]3CC[C@@H]2C3)cc1NC(=O)c1cnn2cc(-c3cnn(C)c3C)sc12` [Example 208, N-(5-((2-((1R,4S)-2-azabicyclo[2.2.1]heptan-2-yl)ethyl)carbamoyl)-2-methylpyridin-3-yl)-2-(1,5-dimethyl-1H-pyrazol-4-yl)pyrazolo[5,1-b]thiazole-7-carboxamide], for which the IC50 in experiment [1] is 0.0043 µM; on PDGFRβ (read-out: PDGFR Cellular IC50) it was 0.096 µM; at VEGFR2, unphosphorylated it was above 7.5 µM.
Turning to `Cc1ncc(C(=O)NCCN2CCCC23CCC3)cc1NC(=O)c1cnn2cc(-c3cnn(C)c3C)sc12` [Example 209, N-(5-((2-(5-azaspiro[3.4]octan-5-yl)ethyl)carbamoyl)-2-methyl-pyridin-3-yl)-2-(1,5-dimethyl-1H-pyrazol-4-yl)pyrazolo[5,1-b]thiazole-7-carboxamide], the 50% inhibitory concentration (IC50) in experiment [1] is 0.0022 µM; at PDGFRβ (read-out: PDGFR Cellular IC50) it was 0.0028 µM; against VEGFR2, unphosphorylated, above 7.5 µM.
For the molecule `Cc1ncc(C(=O)NCCN2CC3CCC2C3)cc1NC(=O)c1cnn2cc(-c3cnn(C)c3C)sc12` (stereo not drawn) [Example 210, N-(5-((2-(2-azabicyclo[2.2.1]heptan-2-yl)ethyl)carbamoyl)-2-methylpyridin-3-yl)-2-(1,5-dimethyl-1H-pyrazol-4-yl)pyrazolo[5,1-b]thiazole-7-carboxamide], the IC50 was 0.0026 µM in experiment [1]; 0.0898 µM on PDGFRβ (read-out: PDGFR Cellular IC50); above 7.5 µM against VEGFR2, unphosphorylated.
For `Cc1ncc(C(=O)NCCN2C[C@H]3CC[C@@H]2C3)cc1NC(=O)c1cnn2cc(-c3cn(C)nc3C)sc12` [Example 211, N-(5-((2-((1R,4S)-2-azabicyclo[2.2.1]heptan-2-yl)ethyl)carbamoyl)-2-methylpyridin-3-yl)-2-(1,3-dimethyl-1H-pyrazol-4-yl)pyrazolo[5,1-b]thiazole-7-carboxamide], the half-maximal inhibitory concentration (IC50) is 0.0024 µM in experiment [1]; 0.0636 µM at PDGFRβ (read-out: PDGFR Cellular IC50); above 7.5 µM against VEGFR2, unphosphorylated.
On to `Cc1ncc(C(=O)NCCN2CC3CCC2C3)cc1NC(=O)c1cnn2cc(-c3cn(C)nc3C)sc12` (stereo not drawn) [Example 212, N-(5-((2-(2-azabicyclo[2.2.1]heptan-2-yl)ethyl)carbamoyl)-2-methylpyridin-3-yl)-2-(1,3-dimethyl-1H-pyrazol-4-yl)pyrazolo[5,1-b]thiazole-7-carboxamide], for which the IC50 is 0.0013 µM in experiment [1]; 0.104 µM at PDGFRβ (read-out: PDGFR Cellular IC50); above 7.5 µM against VEGFR2, unphosphorylated.
On the same counts, the results for `Cc1ncc(C(=O)NCCN2CCCC23CCC3)cc1NC(=O)c1cnn2cc(-c3cn(C)nc3C)sc12` [Example 213, N-(5-((2-(5-azaspiro[3.4]octan-5-yl)ethyl)carbamoyl)-2-methylpyridin-3-yl)-2-(1,3-dimethyl-1H-pyrazol-4-yl)pyrazolo[5,1-b]thiazole-7-carboxamide] are 0.0019 µM, 0.0024 µM and above 7.5 µM.
Regarding `Cc1ncc(C(=O)NCCN2CCCC23CCC3)cc1NC(=O)c1cnn2cc(-c3c(C)nn(C)c3C)sc12` [Example 214, N-(5-((2-(5-azaspiro[3.4]octan-5-yl)ethyl)carbamoyl)-2-methylpyridin-3-yl)-2-(1,3,5-trimethyl-1H-pyrazol-4-yl)pyrazolo[5,1-b]thiazole-7-carboxamide], the 50% inhibitory concentration (IC50) is 0.0018 µM in experiment [1]; 0.0039 µM on PDGFRβ (read-out: PDGFR Cellular IC50); above 7.5 µM against VEGFR2, unphosphorylated.
On to `Cc1ncc(NC(=O)CCCN2CCC23CCC3)cc1NC(=O)c1cnn2cc(-c3cnn(C)c3)sc12` [Example 215, N-(5-(4-(1-azaspiro[3.3]heptan-1-yl)butanamido)-2-methylpyridin-3-yl)-2-(1-methyl-1H-pyrazol-4-yl)pyrazolo[5,1-b]thiazole-7-carboxamide], for which the concentration for half-maximal inhibition (IC50) in experiment [1] was 0.0168 µM; at PDGFRβ (PDGFR Cellular IC50), 0.0801 µM; at VEGFR2, unphosphorylated it was above 7.5 µM.
In the case of `COCCn1cc(-c2cn3ncc(C(=O)Nc4cc(NC(=O)CCCN5CCC[C@@H]5C)cnc4C)c3s2)cn1` [Example 216, (S)-2-(1-(2-methoxyethyl)-1H-pyrazol-4-yl)-N-(2-methyl-5-(4-(2-methylpyrrolidin-1-yl)butanamido)pyridin-3-yl)pyrazolo[5,1-b]thiazole-7-carboxamide], the half-maximal inhibitory concentration (IC50) is 0.0478 µM in experiment [1]; 0.626 µM against PDGFRβ (PDGFR Cellular IC50); above 7.5 µM against VEGFR2, unphosphorylated.
